# Marks after values point to notes of the source that are not given here. Residues, ends and D or L forms follow the SMILES beside them.
# Key:
# [1] = tested on: patients meeting modified Rome II criteria for chronic constipation; experiment: Chronic Constipation Trial 1, 12-week treatment period; type: in vivo, human; conditions: Trial 1
# Protocol: (§1) Linaclotide Capsules from Example 4 were administered in multicenter, randomized, double-blind, placebo-controlled trials.
# (§2) Trial 1 was conducted in 630 patients meeting modified Rome II criteria for chronic constipation. The trial included a two-week pretreatment baseline period and a 12-week treatment period. A diagram of the study design for Trial 2 is given in FIG. 1, which is substantially similar to Trial 1 except for the addition of a Randomized Withdrawal period in Trial 2 as described below.
# The Pretreatment Period is defined as the 14 to 21 calendar days immediately before starting the trial during which where patients provided information related to their daily bowel habits, daily assessment of the symptom severity, constipation severity, and use of other medicines, laxatives, suppositories, and/or enemas. Patients who satisfy the necessary criteria were entered into the Treatment Period. During the two-week pretreatment period, 72 percent of patients in Trial 1 had no CSBMs. A CSBM is an bowel movement that occurs in the absence of laxative, enema, or suppository usage within the preceding 24 hours that is accompanied by the patient self-reporting a feeling of complete emptying of the bowel.
# (§3) The Treatment Period began with randomization and lasted for 12 weeks. Patients were randomized to treatment with 133 μg linaclotide, 266 μg linaclotide, or placebo (1:1:1), taken once daily in the morning. Patients continued to provide their daily assessments such as their daily bowel habit assessments and daily patient symptom severity assessments.
# [2] = tested on: patients with chronic constipation; experiment: Chronic Constipation Trial 2, 12-week treatment period; type: in vivo, human; conditions: for Straining, Week 1 Mean Change from Baseline / Abdominal discomfort, Week 1 Mean Change from Baseline / Bloating, Week 1 Mean Change from Baseline / Constipation severity, Week 1 Mean Change from Baseline: 5-point scale: 1 = none; for Straining, Week 1 Mean Change from Baseline: 5 = an extreme amount; for Abdominal discomfort, Week 1 Mean Change from Baseline / Bloating, Week 1 Mean Change from Baseline / Constipation severity, Week 1 Mean Change from Baseline: 5 = very severe; for Stool Consistency, Week 1 Mean Change from Baseline: 7-point scale (BSFS)
# Protocol: as §1, §2, §3
# Trial 2 was conducted in 642 patients and was identical to Trial 1 except that Trial 2 also included a four-week Randomized Withdrawal Period, defined below. During the two-week pretreatment (baseline) period, 68 percent of patients in Trial 2 had no CSBMs.
# [3] = Systemic linaclotide levels after oral administration; type: in vivo; conditions: after oral administration at therapeutic dose levels
# From the text: Linaclotide is a peptide GC-C agonist that is orally administered and currently in clinical trials for treatment of irritable bowel syndrome with constipation (IBS-c) and CC.
# [4] = 133 μg (p≦0.0001) and 266 μg (p≦0.0001)
# [5] = 133 μg (p≦0.001) and 266 μg (p≦0.0001)
# [6] = Trial 2, 133 μg (p≦0.0001) and 266 μg (p≦0.0001)
compound,measurement,setting,value
"C[C@@H]1NC(=O)[C@@H]2CCCN2C(=O)[C@H](CC(N)=O)NC(=O)[C@@H]2CSSC[C@H](N)C(=O)N[C@H]3CSSC[C@H](NC1=O)C(=O)N[C@@H]([C@@H](C)O)C(=O)NCC(=O)N[C@H](C(=O)N[C@@H](Cc1ccc(O)cc1)C(=O)O)CSSC[C@H](NC(=O)[C@H](Cc1ccc(O)cc1)NC(=O)[C@H](CCC(=O)O)NC3=O)C(=O)N2 [Linaclotide, Cys1 Cys2 Glu3 Tyr4 Cys5 Cys6 Asn7 Pro8 Ala9 Cys10 Thr11 Gly12 Cys13 Tyr14] (HELM PEPTIDE1{C.C.E.Y.C.C.N.P.A.C.T.G.C.Y}$PEPTIDE1,PEPTIDE1,1:R3-6:R3|PEPTIDE1,PEPTIDE1,2:R3-10:R3|PEPTIDE1,PEPTIDE1,5:R3-13:R3$$$V2.0)","PAC-QOL overall assessments, 12 week overall mean change versus placebo",[1]; [4],statistically significant improvements
same,PAC-QOL subscale score Physical Discomfort versus placebo,[1]; [4],statistically significant improvements
same,PAC-QOL subscale score Satisfaction versus placebo,[1]; [4],statistically significant improvements
same,PAC-QOL subscale score Worries/Concerns versus placebo,[1]; [4],statistically significant improvements
same,"severity of straining score, 12 week overall mean change versus placebo",[1]; [4],statistically significant improvements
same,"stool consistency score, 12 week overall mean change versus placebo",[1]; [4],statistically significant improvements
same,"abdominal discomfort score, 12 week overall mean change versus placebo",[1]; [5],statistically significant improvements
same,"bloating score, 12 week overall mean change versus placebo",[1]; [5],statistically significant improvements
same,"constipation severity score, 12 week overall mean change versus placebo",[1]; [5],statistically significant improvements
same,"CSBM rate, Week 1 Mean Change from Baseline","[2]; 133 μg, Trial 2 (n = 217)",1.89***
same,"SBM rate, Week 1 Mean Change from Baseline","[2]; 133 μg, Trial 2 (n = 217)",3.59***
same,"Straining, Week 1 Mean Change from Baseline","[2]; 133 μg, Trial 2 (n = 217)",−0.99***
same,"Abdominal discomfort, Week 1 Mean Change from Baseline","[2]; 133 μg, Trial 2 (n = 217)",−0.23
same,"Bloating, Week 1 Mean Change from Baseline","[2]; 133 μg, Trial 2 (n = 217)",−0.32**
same,"Constipation severity, Week 1 Mean Change from Baseline","[2]; 133 μg, Trial 2 (n = 217)",−0.80***
same,"Stool Consistency, Week 1 Mean Change from Baseline","[2]; 133 μg, Trial 2 (n = 217)",1.75***
same,"CSBM rate, Week 1 Mean Change from Baseline","[2]; 266 μg, Trial 2 (n = 216)",2.02***
same,"SBM rate, Week 1 Mean Change from Baseline","[2]; 266 μg, Trial 2 (n = 216)",3.61***
same,"Straining, Week 1 Mean Change from Baseline","[2]; 266 μg, Trial 2 (n = 216)",−1.06***
same,"Abdominal discomfort, Week 1 Mean Change from Baseline","[2]; 266 μg, Trial 2 (n = 216)",−0.21
same,"Bloating, Week 1 Mean Change from Baseline","[2]; 266 μg, Trial 2 (n = 216)",−0.27*
same,"Constipation severity, Week 1 Mean Change from Baseline","[2]; 266 μg, Trial 2 (n = 216)",−0.76***
same,"Stool Consistency, Week 1 Mean Change from Baseline","[2]; 266 μg, Trial 2 (n = 216)",1.81***
same,12-week CSBM overall responder rate,"[2]; Trial 2, 133 μg",21.2%
same,increase in average weekly CSBMs from baseline,"[2]; Trial 2, 133 μg",1.9
same,increase in average weekly SBMs from baseline,"[2]; Trial 2, 133 μg",3.0
same,numerical increase of 12-week CSBM overall responder rate as compared to placebo,"[2]; Trial 2, 133 μg",6.3 fold
same,patients reporting at least one CSBM within 24 hours of treatment,"[2]; Trial 2, 133 μg",33.2%
same,patients reporting at least one SBM within 24 hours of treatment,"[2]; Trial 2, 133 μg",70.0%
same,patients who experienced weekly CSBMs in at least nine out of 12 weeks,"[2]; Trial 2, 133 μg",21.7%
same,patients with increase of ≧1 from baseline in weekly CSBMs in at least nine out of 12 weeks,"[2]; Trial 2, 133 μg",39.2%
same,patients with increase of ≧1 from baseline in weekly CSBMs in at least six out of 12 weeks,"[2]; Trial 2, 133 μg",56.7%
same,12-week CSBM overall responder rate,"[2]; Trial 2, 266 μg",19.4%
same,increase in average weekly CSBMs from baseline,"[2]; Trial 2, 266 μg",2.0
same,increase in average weekly SBMs from baseline,"[2]; Trial 2, 266 μg",3.0
same,numerical increase of 12-week CSBM overall responder rate as compared to placebo,"[2]; Trial 2, 266 μg",5.8 fold
same,patients reporting at least one CSBM within 24 hours of treatment,"[2]; Trial 2, 266 μg",26.9%
same,patients reporting at least one SBM within 24 hours of treatment,"[2]; Trial 2, 266 μg",54.6%
same,patients who experienced weekly CSBMs in at least nine out of 12 weeks,"[2]; Trial 2, 266 μg",19.4%
same,patients with increase of ≧1 from baseline in weekly CSBMs in at least nine out of 12 weeks,"[2]; Trial 2, 266 μg",37.0%
same,patients with increase of ≧1 from baseline in weekly CSBMs in at least six out of 12 weeks,"[2]; Trial 2, 266 μg",50.5%
same,"PAC-QOL overall assessments, 12 week overall mean change versus placebo",[2]; [6],statistically significant improvements
same,"overall constipation severity score, 12 week overall mean change versus placebo",[2]; [6],statistically significant improvements
same,"severity of straining score, 12 week overall mean change versus placebo",[2]; [6],statistically significant improvements
same,"stool consistency score, 12 week overall mean change versus placebo",[2]; [6],statistically significant improvements
same,"bloating score, 12 week overall mean change versus placebo","[2]; Trial 2, 133 μg (p≦0.0001) and 266 μg (p≦0.01)",statistically significant improvements
same,"abdominal discomfort score, 12 week overall mean change versus placebo","[2]; Trial 2, 133 μg (p≦0.001) and 266 μg (p≦0.01)",statistically significant improvements
same,abdominal discomfort in week 2,"[2]; study 2, week 2 (p<0.01)",Statistically significant improvement
same,levels seen systemically,[3],no detectable levels

# Reference: patent US20140349948A1, “Treatment of Chronic Constipation” (Forest Laboratories Holdings Limited, priority 2009, published 2014)
